Peptide text beside a SMILES is read from it.
System: Human dermal fibroblast cells
Assay: Pro-collagen I production in human dermal fibroblast cells (HTRF human pro-collagen I kit)
Type: cell-based
Settings: peptide concentration 0.001% in DMEM media without FBS, 48 h treatment, percent change relative to vehicle control
Procedure: Human dermal fibroblast cells were grown in a 96 well plate in DMEM media (available from Corning, N.Y.) supplemented with 10% Fetal Bovine Serum (FBS) and L-glutamine (0.07×10^5 cells/plate). After reaching about 75% confluence, cells were transferred into DMEM media without FBS and incubated for 4-6 hours. Next, cells were treated with peptide of Formula I at 0.00001%, 0.0001%, 0.001% final concentration in DMEM media without FBS for 48 h. After treatment the media were collected, and cell viability was measured using MTT. The amount of secreted collagen was tested in the media using HTRF human pro-collagen I kit (Cisbio Inc, Bedford, Mass.).
Results are summarized in Table 1 below as percent change of pro-collagen I production relative to vehicle control: […]

CCC(C)C(NC(=O)C(N)CCC(N)=O)C(=O)NC(CC(C)C)C(=O)NC(CO)C(=O)NC(CCCCN)C(=O)NC(CC(C)C)C(=O)NC(CCCNC(=N)N)C(=O)NC(CC(C)C)C(=O)O (stereo not drawn) [QILSKLRL (SEQ ID NO: 1), Gln-Ile-Leu-Ser-Lys-Leu-Arg-Leu] (H-QILSKLRL-OH; configuration not given here)
Increase in Pro-Collagen I Production: +10-30%
Increase in Pro-Collagen I Production (listed as peptide of Formula I): 10-30%

Source: US20170281508A1, “Peptides and Their Use in the Treatment of Skin” (AVON PRODUCTS, INC., priority 2014, published 2017)
